{"source": "paper PMC4450297", "about": "“Screening Active Compounds from Garcinia Species Native to China Reveals Novel Compounds Targeting the STAT/JAK Signaling Pathway” (BioMed Research International, 2015)"}
{"tested_on": "A498", "assay": "Cell panel screen (CellTiter-Glo)", "assay_type": "cell-based, human", "conditions": "A498 (listed under Lung), 20 micromolar, 72 hrs", "in_short": "(§1)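 Here, cancer cells cultured in medium with 10% FBS are treated for 72 h with each compound at 20 μM final. Viability is measured by ATP-dependent luminescence, and growth inhibition is calculated as a percentage against vehicle-only wells minus cell-free background.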", "units": {"Percent Inhibition": "%"}}
{"smiles": "CC(C)=CCC[C@@]1(C)C=Cc2c(O)c3c(c(CC=C(C)C)c2O1)O[C@]12C(=C[C@@H]4C[C@H]1C(C)(C)O[C@@]2(C/C=C(/C)C(=O)O)C4=O)C3=O", "note": "[GB11]", "Percent Inhibition": 98}
{"tested_on": "A704", "assay": "Cell panel screen (CellTiter-Glo)", "assay_type": "cell-based, human", "conditions": "A704 (Kidney), 20 micromolar, 72 hrs", "in_short": "as §1", "units": {"Percent Inhibition": "%"}}
{"smiles": "CC(C)=CCC[C@@]1(C)C=Cc2c(O)c3c(c(CC=C(C)C)c2O1)O[C@]12C(=C[C@@H]4C[C@H]1C(C)(C)O[C@@]2(C/C=C(/C)C(=O)O)C4=O)C3=O", "note": "[GB11]", "Percent Inhibition": 98}
{"tested_on": "BT-474", "assay": "Cell panel screen (CellTiter-Glo)", "assay_type": "cell-based, human", "conditions": "BT-474 (Breast), 20 micromolar, 72 hrs", "in_short": "as §1", "units": {"Percent Inhibition": "%"}}
{"smiles": "CC(C)=CCC[C@@]1(C)C=Cc2c(O)c3c(c(CC=C(C)C)c2O1)O[C@]12C(=C[C@@H]4C[C@H]1C(C)(C)O[C@@]2(C/C=C(/C)C(=O)O)C4=O)C3=O", "note": "[GB11]", "Percent Inhibition": 98}
{"tested_on": "BT-549", "assay": "Cell panel screen (CellTiter-Glo)", "assay_type": "cell-based, human", "conditions": "BT-549 (Breast), 20 micromolar, 72 hrs", "in_short": "as §1", "units": {"Percent Inhibition": "%"}}
{"smiles": "CC(C)=CCC[C@@]1(C)C=Cc2c(O)c3c(c(CC=C(C)C)c2O1)O[C@]12C(=C[C@@H]4C[C@H]1C(C)(C)O[C@@]2(C/C=C(/C)C(=O)O)C4=O)C3=O", "note": "[GB11]", "Percent Inhibition": 99}
{"tested_on": "Bel-7402", "assay": "Cell panel screen (CellTiter-Glo)", "assay_type": "cell-based, human", "conditions": "Bel-7402 (Liver), 20 micromolar, 72 hrs", "in_short": "as §1", "units": {"Percent Inhibition": "%"}}
{"smiles": "CC(C)=CCC[C@@]1(C)C=Cc2c(O)c3c(c(CC=C(C)C)c2O1)O[C@]12C(=C[C@@H]4C[C@H]1C(C)(C)O[C@@]2(C/C=C(/C)C(=O)O)C4=O)C3=O", "note": "[GB11]", "Percent Inhibition": 98}
{"tested_on": "C3A", "assay": "Cell panel screen (CellTiter-Glo)", "assay_type": "cell-based, human", "conditions": "C3A (Liver), 20 micromolar, 72 hrs", "in_short": "as §1", "units": {"Percent Inhibition": "%"}}
{"smiles": "CC(C)=CCC[C@@]1(C)C=Cc2c(O)c3c(c(CC=C(C)C)c2O1)O[C@]12C(=C[C@@H]4C[C@H]1C(C)(C)O[C@@]2(C/C=C(/C)C(=O)O)C4=O)C3=O", "note": "[GB11]", "Percent Inhibition": 98}
{"tested_on": "C8166", "assay": "Cell panel screen (CellTiter-Glo)", "assay_type": "cell-based, human", "conditions": "C8166 (Leukemia), 20 micromolar, 72 hrs", "in_short": "as §1", "units": {"Percent Inhibition": "%"}}
{"smiles": "CC(C)=CCC[C@@]1(C)C=Cc2c(O)c3c(c(CC=C(C)C)c2O1)O[C@]12C(=C[C@@H]4C[C@H]1C(C)(C)O[C@@]2(C/C=C(/C)C(=O)O)C4=O)C3=O", "note": "[GB11]", "Percent Inhibition": 99}
{"tested_on": "CCF-STTG1", "assay": "Cell panel screen (CellTiter-Glo)", "assay_type": "cell-based, human", "conditions": "CCF-STTG1 (Brain), 20 micromolar, 72 hrs", "in_short": "as §1", "units": {"Percent Inhibition": "%"}}
{"smiles": "CC(C)=CCC[C@@]1(C)C=Cc2c(O)c3c(c(CC=C(C)C)c2O1)O[C@]12C(=C[C@@H]4C[C@H]1C(C)(C)O[C@@]2(C/C=C(/C)C(=O)O)C4=O)C3=O", "note": "[GB11]", "Percent Inhibition": 98}
{"tested_on": "CW-2", "assay": "Cell panel screen (CellTiter-Glo)", "assay_type": "cell-based, human", "conditions": "CW-2 (Colon), 20 micromolar, 72 hrs", "in_short": "as §1", "units": {"Percent Inhibition": "%"}}
{"smiles": "CC(C)=CCC[C@@]1(C)C=Cc2c(O)c3c(c(CC=C(C)C)c2O1)O[C@]12C(=C[C@@H]4C[C@H]1C(C)(C)O[C@@]2(C/C=C(/C)C(=O)O)C4=O)C3=O", "note": "[GB11]", "Percent Inhibition": 98}
{"tested_on": "ChaGo-K-1", "assay": "Cell panel screen (CellTiter-Glo)", "assay_type": "cell-based, human", "conditions": "ChaGo-K-1 (Lung), 20 micromolar, 72 hrs", "in_short": "as §1", "units": {"Percent Inhibition": "%"}}
{"smiles": "CC(C)=CCC[C@@]1(C)C=Cc2c(O)c3c(c(CC=C(C)C)c2O1)O[C@]12C(=C[C@@H]4C[C@H]1C(C)(C)O[C@@]2(C/C=C(/C)C(=O)O)C4=O)C3=O", "note": "[GB11]", "Percent Inhibition": 98}
{"tested_on": "Colo 205", "assay": "Cell panel screen (CellTiter-Glo)", "assay_type": "cell-based, human", "conditions": "Colo 205, 20 micromolar, 72 hrs", "in_short": "as §1", "units": {"Percent Inhibition": "%"}}
{"smiles": "CC(C)=CCC[C@@]1(C)C=Cc2c(O)c3c(c(CC=C(C)C)c2O1)O[C@]12C(=C[C@@H]4C[C@H]1C(C)(C)O[C@@]2(C/C=C(/C)C(=O)O)C4=O)C3=O", "note": "[GB11]", "Percent Inhibition": 98}
{"tested_on": "HCC1395", "assay": "Cell panel screen (CellTiter-Glo)", "assay_type": "cell-based, human", "conditions": "HCC1395 (Breast), 20 micromolar, 72 hrs", "in_short": "as §1", "units": {"Percent Inhibition": "%"}}
{"smiles": "CC(C)=CCC[C@@]1(C)C=Cc2c(O)c3c(c(CC=C(C)C)c2O1)O[C@]12C(=C[C@@H]4C[C@H]1C(C)(C)O[C@@]2(C/C=C(/C)C(=O)O)C4=O)C3=O", "note": "[GB11]", "Percent Inhibition": 98}
{"tested_on": "HCC1569", "assay": "Cell panel screen (CellTiter-Glo)", "assay_type": "cell-based, human", "conditions": "HCC1569 (Breast), 20 micromolar, 72 hrs", "in_short": "as §1", "units": {"Percent Inhibition": "%"}}
{"smiles": "CC(C)=CCC[C@@]1(C)C=Cc2c(O)c3c(c(CC=C(C)C)c2O1)O[C@]12C(=C[C@@H]4C[C@H]1C(C)(C)O[C@@]2(C/C=C(/C)C(=O)O)C4=O)C3=O", "note": "[GB11]", "Percent Inhibition": 99}
{"tested_on": "HCC1599", "assay": "Cell panel screen (CellTiter-Glo)", "assay_type": "cell-based, human", "conditions": "HCC1599 (Breast), 20 micromolar, 72 hrs", "in_short": "as §1", "units": {"Percent Inhibition": "%"}}
{"smiles": "CC(C)=CCC[C@@]1(C)C=Cc2c(O)c3c(c(CC=C(C)C)c2O1)O[C@]12C(=C[C@@H]4C[C@H]1C(C)(C)O[C@@]2(C/C=C(/C)C(=O)O)C4=O)C3=O", "note": "[GB11]", "Percent Inhibition": 99}
{"tested_on": "HCC1937", "assay": "Cell panel screen (CellTiter-Glo)", "assay_type": "cell-based, human", "conditions": "HCC1937 (Breast), 20 micromolar, 72 hrs", "in_short": "as §1", "units": {"Percent Inhibition": "%"}}
{"smiles": "CC(C)=CCC[C@@]1(C)C=Cc2c(O)c3c(c(CC=C(C)C)c2O1)O[C@]12C(=C[C@@H]4C[C@H]1C(C)(C)O[C@@]2(C/C=C(/C)C(=O)O)C4=O)C3=O", "note": "[GB11]", "Percent Inhibition": 98}
{"tested_on": "HEC-1-A", "assay": "Cell panel screen (CellTiter-Glo)", "assay_type": "cell-based, human", "conditions": "HEC-1-A (Uterus), 20 micromolar, 72 hrs", "in_short": "as §1", "units": {"Percent Inhibition": "%"}}
{"smiles": "CC(C)=CCC[C@@]1(C)C=Cc2c(O)c3c(c(CC=C(C)C)c2O1)O[C@]12C(=C[C@@H]4C[C@H]1C(C)(C)O[C@@]2(C/C=C(/C)C(=O)O)C4=O)C3=O", "note": "[GB11]", "Percent Inhibition": 99}
{"tested_on": "HGC-27", "assay": "Cell panel screen (CellTiter-Glo)", "assay_type": "cell-based, human", "conditions": "HGC-27 (Stomach), 20 micromolar, 72 hrs", "in_short": "as §1", "units": {"Percent Inhibition": "%"}}
{"smiles": "CC(C)=CCC[C@@]1(C)C=Cc2c(O)c3c(c(CC=C(C)C)c2O1)O[C@]12C(=C[C@@H]4C[C@H]1C(C)(C)O[C@@]2(C/C=C(/C)C(=O)O)C4=O)C3=O", "note": "[GB11]", "Percent Inhibition": 98}
{"tested_on": "HPAF-II", "assay": "Cell panel screen (CellTiter-Glo)", "assay_type": "cell-based, human", "conditions": "HPAF-II (Pancreas), 20 micromolar, 72 hrs", "in_short": "as §1", "units": {"Percent Inhibition": "%"}}
{"smiles": "CC(C)=CCC[C@@]1(C)C=Cc2c(O)c3c(c(CC=C(C)C)c2O1)O[C@]12C(=C[C@@H]4C[C@H]1C(C)(C)O[C@@]2(C/C=C(/C)C(=O)O)C4=O)C3=O", "note": "[GB11]", "Percent Inhibition": 98}
